Entries after “also recorded” stand apart in the source; their conditions may differ.
Tests used:
[1] = test system: CT60 cells; experiment: Gas chromatography cholesterol assay; format: cell-based, Chinese hamster; details: 10 μM, FC = free cholesterol
Protocol: The cholesterol lowering effect of the 14 hit compounds identified by filipin labeling was measured by an alternative chemical method that involved GC separation of solvent-extracted cellular lipids (43). CT60 cells were treated with compounds at 10 μM under the same conditions as in the screening assays. Since the GC assay estimates FC content per cell, the values are compared to the average filipin intensity assay (Table 1).
CT60 or CT43 cells were plated on day 1 in 6-well plates. Hit compounds were added to the cells at 10 μM concentration. Cells were incubated for 24 h. Cellular lipids were extracted with hexane: iso-propyl alcohol (3:2 v/v). The lipid extracts were dried and re-suspended in hexane followed by separation on gas chromatograph using β-sitosterol as an internal standard.
Procedure: CT60 cells were plated in 6-well plates in Ham's F-12/1.176 g/L sodium bicarbonate/2 g/L glucose/10% FBS. Following 24 h incubation, cells were treated with 10 μM of each compounds, medium being replaced with Ham's F-12/1.176 g/L sodium bicarbonate/2 g/L glucose/5.5% FBS/20 mM HEPES. The change of the medium in the wells was performed to have experimental conditions similar to those used for the screening once chemical compounds were added to the cells. After 18 h treatment with compounds, cells were washed twice with Hank's balanced salt solutions (HBSS). Cellular lipids were extracted with hexane/isopropyl alcohol (3:2 v/v) (43) dried and resuspended in hexane followed by separation on a gas chromatograph (GC) using following conditions. A Hewlett Packard GC model HP 5890 series II (Palo Alto, Calif.) equipped with a flame ionization detector, split-splitless injector, and 15 m×0.53 mm HP-5 capillary column coated with […] film thickness of 5% phenyl methyl siloxane was used to separate free cholesterol. The injection temperature was maintained at 255° C. and oven temperature was held isothermally at 260° C. using helium as a mobile phase at 30 mL/min flow rate. The free cholesterol (FC) was quantified using beta-sitosterol as internal standard to correct for lipid losses during extraction.

[2] = test system: CT60 cells; experiment: Filipin binding assay, average filipin intensity and staining pattern; format: cell-based, Chinese hamster; details: 10 μM; for Average filipin intensity Fraction of control: 14 hit compounds from primary library
Protocol: We developed assays for correction of the NPC phenotype in CHO cell lines using filipin, which binds to non-esterified cholesterol and has been used to visualize the free cholesterol content in NPC cells. The initial screens were carried out in CT60 cells, which express a mutated hamster NPC1 protein and a gain of function mutation in SCAP (42). These cells cannot traffic LDL-derived cholesterol out of late endosomes, and large amounts of cholesterol accumulate in LSO compartments. FIGS. 1A-B show images of filipin staining in a control CHO cell line, TRVb1 (45) (FIG. 1A) and in CT60 cells (FIG. 1B). It can be seen that the CT60 cells show much more filipin staining than control cells and that the fluorescence in CT60 cells is concentrated in peri-nuclear organelles.
For screening, images were acquired using a Discovery-1 automated microscopy system with a 10× objective and corrected for background and shading as described in Methods. Two thresholds were set for filipin staining, a low threshold to include all cell areas, and a high threshold for the strong filipin staining in the peri-nuclear LSOs. The threshold values were set for each plate from analysis of 64 images in 32 wells of untreated CT60 cells. […] In developing the low threshold, we compared the outlines based on the thresholded cell images with transmitted light images, and the thresholds provided good agreement with the transmitted light cell boundaries.
As a simple measure of the intensity of filipin staining, we measured the filipin intensity per pixel above the threshold. The conditions of filipin labeling (time and concentration) were adjusted to optimize the discrimination between the CT60 cells and control TRVb1 cells. […] The quality of the assay for screening is expressed in terms of a statistical parameter Z′(46):
Using the above screening technique, we screened a library of 14,956 compounds added to cells for 16 hours at a final concentration of 10 μM, using a single well for each compound. Prior to application of the compounds, cells were grown in normal tissue culture medium containing 10% FBS, so the LSOs were filled with cholesterol (FIG. 1B). The cells were then imaged and analyzed using the average filipin intensity assay and the LSO compartment assay. In general, the two analyses identified similar compounds that reduced the filipin labeling.
Compound addition: The library compounds were formatted for screening in the Rockefeller University High Throughput Screening Facility. Cells were treated with the compounds from the chemical library one day after plating. We added […] of each compound (5 mM stock in DMSO) to 25 μl of screening Medium S composed of medium A supplemented with 1% FBS and 20 mM 4-(2-hydroxyethyl)-1-pipiperazine ethane sulphonic acid (HEPES) in Falcon 384-well V-bottomed polypropylene plates using a Packard MiniTrak™ robotic liquid handling system. To obtain ˜10 μM final concentration, 23 μl of the premixed compounds were dispensed into the plates containing cells and […] of culture medium A. For primary screening, 352 test compounds were added to each plate, and the remaining 32 wells were used as a control with only DMSO added. All plates were incubated with compounds for 16 h at 37° C. Plates were then washed three times with phosphate buffered saline pH 7.4 (PBS) using a Bio-Tek Elx405 plate washer (Bio-Tek Instruments Inc., Winooski, Vt.). For each wash cycle, […] of PBS was dispensed followed by aspiration with a residual volume of 16 μl per well. Finally, cells were fixed with 1.5% PFA in PBS for 20 min at room temperature, followed by 3 more washes with PBS.
Fluorescence labeling. To the fixed cells, filipin was added at a final concentration of 50 μg/ml in PBS for 45 m at room temperature to label free cholesterol. Cells were finally washed three times with PBS, and images were acquired immediately after labeling. […]

[3] = test system: normal human fibroblasts; experiment: Filipin staining of normal human fibroblasts; format: cell-based; details: data not shown
Protocol: These cells show rearrangements that may indicate that cholesterol has been redirected to a different compartment or that the morphology of the LSOs themselves has been changed (compound 1-c-3, FIG. 4C).
(§1) Normal human fibroblasts (GM5659E) were grown in MEM with 1% P/S and 10% FBS. For microscopy, fibroblasts were plated in normal growth medium on glass-bottomed 35 mm dishes or in 384-well plates.

[4] = test system: normal human fibroblasts; experiment: Filipin LSO ratio assay on U18666A-treated normal human fibroblasts; format: cell-based; details: 250 nM or 500 nM, 20 hours
Protocol: FIG. 12 depicts the effect of 7 compounds (2-a-1, 2-a-3, 2-a-8, 2-a-9, 2-a-12, 2-a-13, 2-a-15) from the second library on U18666A-treated normal human fibroblasts. Normal human fibroblasts were plated in 384 well plates and grown in regular growth medium for 24 h, after which the cells were treated with compound U18666A (500 nM or 250 nM) in screening medium for 4 h. The cells were then further incubated overnight with hit compounds (10 μM) in the continued presence of U18666A. Finally, cells were washed three times with PBS, fixed with 1.5% PFA, washed with PBS and stained with filipin. Images were acquired using the Discovery1 microscope at 10× magnification and analyzed for the LSO ratio. Solid horizontal lines are the mean for U18666A-treated cells at each concentration, and the dotted horizontal lines indicate −3 SD.
as §1
Normalized values were obtained by dividing the values in the presence of each compound by the values obtained in presence of solvent control for each plate. Similar methods were used to analyze the effects of compounds on human fibroblasts treated with U18666A to induce cholesterol retention in LSOs. […]

SMILES | μg FC/μg Protein by GC Fraction of control [1] | Average filipin intensity Fraction of control [2] | also measured
CN(C)c1cc(NN=Cc2cccs2)nc(N(C)C)n1 [Compound 1-a-12] | 0.73 ± 0.03 Fraction of control | 0.91 ± 0.04 Fraction of control | –
CCOC(=O)c1sc(NC(=O)c2ccccc2C)nc1-c1ccccc1 [Compound 1-a-11] | 0.82 ± 0.07 Fraction of control | 0.90 ± 0.04 Fraction of control | –
CC1=NN(c2ccccc2)C(=O)C1=NNc1ccccc1C(=O)O [Compound 1-c-3] | – | – | morphological change of the filipin staining pattern [2]: peri-nuclear clusters of LSOs in mutant cells to become more dispersed; also recorded: morphological changes; also recorded: large network of apparently tubular organelles
CCOc1ccc(NN=C2C(=O)N(c3nc(-c4ccccc4)cs3)N=C2c2ccccc2)cc1 [Compound 1-a-3] | 1.27 ± 0.07 Fraction of control | 0.95 ± 0.04 Fraction of control | –
Nc1c(Sc2ccccc2)cc(Sc2ccccc2)c2c1C(=O)c1ccccc1C2=O [Compound 1-a-1] | 1.02 ± 0.03 Fraction of control | 0.87 ± 0.04 Fraction of control | –
O=C1C(=Cc2ccc(-c3cc(Cl)ccc3Cl)o2)C=C(c2ccccc2)N1c1ccc(O)cc1 [Compound 1-a-7] | 1.04 ± 0.13 Fraction of control | 0.89 ± 0.04 Fraction of control | –
COc1ccccc1NN=C1C(=O)N(c2nc(-c3ccc(Cl)cc3)cs2)N=C1C [Compound 1-a-4] | 0.87 ± 0.07 Fraction of control | 1.01 ± 0.04 Fraction of control | –
C=CCN1C(=O)C(=CC=Cc2ccc(N(C)C)cc2)SC1=S [Compound 1-a-2] | 1.15 ± 0.05 Fraction of control | 0.88 ± 0.04 Fraction of control | –
O=C(O)c1ccc(N2C(=O)C(=Cc3ccc(-c4ccc(Br)cc4)o3)C=C2c2ccccc2)cc1 [Compound 1-a-13] | 1.54 ± 0.11 Fraction of control | 0.97 ± 0.04 Fraction of control | –
O=C1Nc2ccccc2C1=NNc1nc(N2CCCCC2)nc(N2CCCCC2)n1 [Compound 1-a-9] | 0.86 ± 0.07 Fraction of control | 0.99 ± 0.04 Fraction of control | –
Cc1cc([N+](=O)[O-])ccc1NC(=O)CC1SC(=Nc2ccccc2)N(c2ccccc2)C1=O (stereo not shown) [Compound 1-a-10] | 1.23 ± 0.08 Fraction of control | 0.96 ± 0.04 Fraction of control | –
O=C1C(=Cc2ccc(-c3ccc(Br)cc3)o2)C=C(c2ccccc2)N1c1ccc(O)cc1 [Compound 1-a-8] | 1.31 ± 0.10 Fraction of control | 0.90 ± 0.04 Fraction of control | –
CC(C)(C)c1ccc(C(=O)Nc2ccc(-c3nc4ccccc4o3)c(O)c2)cc1 [Compound 1-b-4] | – | – | effect on filipin staining compared with CT60 cells [3]: similar; change in filipin intensity [2]: significant increase; also recorded: increased filipin-intensity; also recorded: increased filipin intensity; morphological change of the filipin staining pattern [2]: filamentous or tubular staining; also recorded: induced morphological changes; also recorded: bright swirls of filipin staining
Clc1ccccc1N1N=C(C=Cc2cccs2)CC1c1cccs1 (stereo not shown) [Compound 1-b-2] | – | – | change in filipin intensity [2]: increase in filipin intensity; also recorded: increased filipin intensity
CCN(CC)C(=O)CCN1C(=O)C(=Cc2ccc(F)cc2)SC1=S [Compound 1-c-2] | – | – | change in filipin intensity [2]: no significant change; morphological change of the filipin staining pattern [2]: more compact LSOs; also recorded: morphological changes
O=C1C(=Cc2ccc(-c3ccc(Cl)c(Cl)c3)o2)C=C(c2ccccc2)N1c1ccc(O)cc1 [Compound 1-a-5] | 1.18 ± 0.06 Fraction of control | 0.89 ± 0.04 Fraction of control | –
CCN(CC)CCO[C@H]1CC[C@@]2(C)C(=CC[C@@H]3[C@@H]2CC[C@]2(C)C(=O)CC[C@@H]32)C1 [Compound U18666A] | – | – | cholesterol accumulation by filipin staining and LSO compartment ratio [4]: significant increase
O=C1C(=Cc2ccc(-c3ccc(Cl)c(Cl)c3)o2)C=C(c2ccccc2)N1c1ccccc1O [Compound 1-a-6] | 1.37 ± 0.01 Fraction of control | 0.92 ± 0.04 Fraction of control | –

Source: US20090012148A1, “REDUCING CELLULAR CHOLESTEROL LEVELS AND/OR TREATING OR PREVENTING PHOSPHOLIPIDOSIS” (priority 2005, published 2009)
